Reference: patent US12448399B2, “Cereblon-based KRAS degrading PROTACs and uses related thereto” (Arvinas Operations, Inc., priority 2023, dated 2025)

Target: T1, KRas-G12D (Homo sapiens, UniProt P01116, G12D)
T1 construct: insert the HiBiT tag onto the N-terminus of one or more of the endogenous KRas alleles; host or cells: AsPC-1 HiBiT-KRasG12D knock-in clone (one tagged allele, two untagged KRasG12D alleles)
Experiment: HiBiT Degradation Assay (G12D), AsPC-1 HiBiT-KRasG12D cells, 24 hr
Type: cell-based
Details: for Dmax: ASPC1, AsPC-1 cells, maximum degradation observed; for DC50: AsPC-1 cells
Summary of the method: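 Degradation was read after 24 hr compound exposure (0.5% DMSO, 37° C) by Nano-Glo HiBiT lytic luminescence in AsPC-1 cells carrying a HiBiT tag on one of three KRasG12D alleles. Signal relative to DMSO gave DC50 and Dmax by 4-parameter fit; alamar blue fluorescence monitored cytotoxicity.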

T1 sequence (P01116 1-188 isoform P01116-2 G12D): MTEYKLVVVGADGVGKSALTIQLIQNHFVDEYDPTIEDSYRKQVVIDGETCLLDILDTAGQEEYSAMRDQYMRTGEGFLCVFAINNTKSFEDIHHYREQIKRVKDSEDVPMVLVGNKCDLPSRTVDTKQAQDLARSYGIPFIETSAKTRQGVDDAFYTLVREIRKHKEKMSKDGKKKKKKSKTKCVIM

SMILES	Dmax [%]	DC50 [µM]
C#Cc1c(F)ccc2cc(O)cc(-c3ncc4c(N5CC6CCC(C5)N6)nc(OCCN5CCC(CC6CCN(c7ccc8c(c7)n(C(C)C)c(=O)n8C7CCC(=O)NC7=O)CC6)CC5)nc4c3F)c12 (stereo not shown) [Compound 175, 3-(5-{4-[(1-{2-[(4-{3,8-diazabicyclo[3.2.1]octan-3-yl}-7-(8-ethynyl-7-fluoro-3-hydroxynaphthalen-1-yl)-8-fluoropyrido[4,3-d]pyrimidin-2-yl)oxy]ethyl}piperidin-4-yl)methyl]piperidin-1-yl}-2-oxo-3-(propan-2-yl)-2,3-dihydro-1H-1,3-benzodiazol-1-yl)piperidine-2,6-dione]	> 70	< 5.1
C#Cc1c(F)ccc2cc(O)cc(-c3ncc4c(N5CC6CCC(C5)N6)nc(OC[C@@H]5CC[C@@H](CN6CCN(c7ccc8c(c7)n(C(C)C)c(=O)n8C7CCC(=O)NC7=O)CC6)N5C)nc4c3F)c12 (stereo partly drawn) [Compound 176, 3-[5-(4-{[(2S,5S)-5-{[(4-{3,8-diazabicyclo[3.2.1]octan-3-yl}-7-(8-ethynyl-7-fluoro-3-hydroxynaphthalen-1-yl)-8-fluoropyrido[4,3-d]pyrimidin-2-yl)oxy]methyl}-1-methylpyrrolidin-2-yl]methyl}piperazin-1-yl)-2-oxo-3-(propan-2-yl)-2,3-dihydro-1H-1,3-benzodiazol-1-yl]piperidine-2,6-dione]	> 70	< 5.1
CCc1c(F)ccc2cc(O)cc(-c3ncc4c(N5CC6CCC(C5)N6)nc(OC[C@@H]5C[C@@H](OC6CCN(CC7CCN(c8ccc9c(c8Cl)CN(C8CCC(=O)NC8=O)C9=O)CC7)CC6)CN5C)nc4c3F)c12 (stereo partly drawn) [Compound 177, 3-(4-chloro-5-{4-[(4-{[(3R,5S)-5-{[(4-{3,8-diazabicyclo[3.2.1]octan-3-yl}-7-(8-ethyl-7-fluoro-3-hydroxynaphthalen-1-yl)-8-fluoropyrido[4,3-d]pyrimidin-2-yl)oxy]methyl}-1-methylpyrrolidin-3-yl]oxy}piperidin-1-yl)methyl]piperidin-1-yl}-1-oxo-2,3-dihydro-1H-isoindol-2-yl)piperidine-2,6-dione]	> 70	< 5.1
CCc1c(F)ccc2cc(O)cc(-c3ncc4c(N5CC6CCC(C5)N6)nc(OC[C@@H]5C[C@@H](OC6CCN(CC7CCN(c8ccc9c(c8F)CN(C8CCC(=O)NC8=O)C9=O)CC7)CC6)CN5C)nc4c3F)c12 (stereo partly drawn) [Compound 178, 3-(5-{4-[(4-{[(3R,5S)-5-{[(4-{3,8-diazabicyclo[3.2.1]octan-3-yl}-7-(8-ethyl-7-fluoro-3-hydroxynaphthalen-1-yl)-8-fluoropyrido[4,3-d]pyrimidin-2-yl)oxy]methyl}-1-methylpyrrolidin-3-yl]oxy}piperidin-1-yl)methyl]piperidin-1-yl}-4-fluoro-1-oxo-2,3-dihydro-1H-isoindol-2-yl)piperidine-2,6-dione]	> 70	< 5.1
CCc1c(F)ccc2cc(O)cc(-c3ncc4c(N5CC6CCC(C5)N6)nc(OCCN5CCC(C)(CC6CCN(CC7CCN(c8ccc9c(c8)n(C)c(=O)n9C8CCC(=O)NC8=O)CC7)CC6)CC5)nc4c3F)c12 (stereo not shown) [Compound 179, 3-{5-[4-({4-[(1-{2-[(4-{3,8-diazabicyclo[3.2.1]octan-3-yl}-7-(8-ethyl-7-fluoro-3-hydroxynaphthalen-1-yl)-8-fluoropyrido[4,3-d]pyrimidin-2-yl)oxy]ethyl}-4-methylpiperidin-4-yl)methyl]piperidin-1-yl}methyl)piperidin-1-yl]-3-methyl-2-oxo-2,3-dihydro-1H-1,3-benzodiazol-1-yl}piperidine-2,6-dione]	> 70	< 5.1
CCc1c(F)ccc2cc(O)cc(-c3ncc4c(N5CC6CCC(C5)N6)nc(OCCN5CCC(C)(CN6CCN(CC7CCN(c8ccc9c(c8)n(C)c(=O)n9C8CCC(=O)NC8=O)CC7)CC6)CC5)nc4c3F)c12 (stereo not shown) [Compound 180, 3-{5-[4-({4-[(1-{2-[(4-{3,8-diazabicyclo[3.2.1]octan-3-yl}-7-(8-ethyl-7-fluoro-3-hydroxynaphthalen-1-yl)-8-fluoropyrido[4,3-d]pyrimidin-2-yl)oxy]ethyl}-4-methylpiperidin-4-yl)methyl]piperazin-1-yl}methyl)piperidin-1-yl]-3-methyl-2-oxo-2,3-dihydro-1H-1,3-benzodiazol-1-yl}piperidine-2,6-dione]	> 70	< 5.1
CCc1c(F)ccc2cc(O)cc(-c3ncc4c(N5CC6CCC(C5)N6)nc(OCCN5CCC(F)(CN6CCN(CC7CCN(c8ccc9c(c8)n(C)c(=O)n9C8CCC(=O)NC8=O)CC7)CC6)CC5)nc4c3F)c12 (stereo not shown) [Compound 181, 3-{5-[4-({4-[(1-{2-[(4-{3,8-diazabicyclo[3.2.1]octan-3-yl}-7-(8-ethyl-7-fluoro-3-hydroxynaphthalen-1-yl)-8-fluoropyrido[4,3-d]pyrimidin-2-yl)oxy]ethyl}-4-fluoropiperidin-4-yl)methyl]piperazin-1-yl}methyl)piperidin-1-yl]-3-methyl-2-oxo-2,3-dihydro-1H-1,3-benzodiazol-1-yl}piperidine-2,6-dione]	> 70	< 5.1
CCc1c(F)ccc2cc(O)cc(-c3ncc4c(N5CC6CCC(C5)N6)nc(OCCN5CCC(F)(CC6CCN(CC7CCN(c8ccc9c(c8)n(C)c(=O)n9C8CCC(=O)NC8=O)CC7)CC6)CC5)nc4c3F)c12 (stereo not shown) [Compound 182, 3-{5-[4-({4-[(1-{2-[(4-{3,8-diazabicyclo[3.2.1]octan-3-yl}-7-(8-ethyl-7-fluoro-3-hydroxynaphthalen-1-yl)-8-fluoropyrido[4,3-d]pyrimidin-2-yl)oxy]ethyl}-4-fluoropiperidin-4-yl)methyl]piperidin-1-yl}methyl)piperidin-1-yl]-3-methyl-2-oxo-2,3-dihydro-1H-1,3-benzodiazol-1-yl}piperidine-2,6-dione]	> 70	< 5.1
C#Cc1c(F)ccc2cc(O)cc(-c3ncc4c(N5CC6CCC(C5)N6)nc(OCCN5CCC(F)(CN6CCC(CC7CCN(c8ccc9c(c8)n(C)c(=O)n9C8CCC(=O)NC8=O)CC7)CC6)CC5)nc4c3F)c12 (stereo not shown) [Compound 183, 3-{5-[4-({1-[(1-{2-[(4-{3,8-diazabicyclo[3.2.1]octan-3-yl}-7-(8-ethynyl-7-fluoro-3-hydroxynaphthalen-1-yl)-8-fluoropyrido[4,3-d]pyrimidin-2-yl)oxy]ethyl}-4-fluoropiperidin-4-yl)methyl]piperidin-4-yl}methyl)piperidin-1-yl]-3-methyl-2-oxo-2,3-dihydro-1H-1,3-benzodiazol-1-yl}piperidine-2,6-dione]	> 70	< 5.1
C#Cc1c(F)ccc2cc(O)cc(-c3ncc4c(N5CC6CCC(C5)N6)nc(OC[C@@H](C)N5CCC(CC6CCN(CC7CCN(c8ccc9c(c8)n(C(C)C)c(=O)n9C8CCC(=O)NC8=O)CC7)CC6)CC5)nc4c3F)c12 (stereo partly drawn) [Compound 184, 3-[5-(4-{[4-({1-[(2R)-1-[(4-{3,8-diazabicyclo[3.2.1]octan-3-yl}-7-(8-ethynyl-7-fluoro-3-hydroxynaphthalen-1-yl)-8-fluoropyrido[4,3-d]pyrimidin-2-yl)oxy]propan-2-yl]piperidin-4-yl}methyl)piperidin-1-yl]methyl}piperidin-1-yl)-2-oxo-3-(propan-2-yl)-2,3-dihydro-1H-1,3-benzodiazol-1-yl]piperidine-2,6-dione]	> 70	< 5.1
C#Cc1c(F)ccc2cc(O)cc(-c3ncc4c(N5CC6CCC(C5)N6)nc(OC[C@@H](C)N5CCC(CC6CCN(CC7CCN(c8ccc9c(c8F)CN(C8CCC(=O)NC8=O)C9=O)CC7)CC6)CC5)nc4c3F)c12 (stereo partly drawn) [Compound 185, 3-[5-(4-{[4-({1-[(2R)-1-[(4-{3,8-diazabicyclo[3.2.1]octan-3-yl}-7-(8-ethynyl-7-fluoro-3-hydroxynaphthalen-1-yl)-8-fluoropyrido[4,3-d]pyrimidin-2-yl)oxy]propan-2-yl]piperidin-4-yl}methyl)piperidin-1-yl]methyl}piperidin-1-yl)-4-fluoro-1-oxo-2,3-dihydro-1H-isoindol-2-yl]piperidine-2,6-dione]	> 70	< 5.1
C#Cc1c(F)ccc2cc(O)cc(-c3ncc4c(N5CC6CCC(C5)N6)nc(OCC5(CN6CCN(CC7CCN(c8ccc9c(c8Cl)CN(C8CCC(=O)NC8=O)C9=O)CC7)CC6)CC5)nc4c3F)c12 (stereo not shown) [Compound 186, 3-{4-chloro-5-[4-({4-[(1-{[(4-{3,8-diazabicyclo[3.2.1]octan-3-yl}-7-(8-ethynyl-7-fluoro-3-hydroxynaphthalen-1-yl)-8-fluoropyrido[4,3-d]pyrimidin-2-yl)oxy]methyl}cyclopropyl)methyl]piperazin-1-yl}methyl)piperidin-1-yl]-1-oxo-2,3-dihydro-1H-isoindol-2-yl}piperidine-2,6-dione]	> 70	< 5.1
C#Cc1c(F)ccc2cc(O)cc(-c3ncc4c(N5CC6CCC(C5)N6)nc(OCC5(CN6CCC(CN7CCN(c8ccc9c(c8Cl)CN(C8CCC(=O)NC8=O)C9=O)CC7)CC6)CC5)nc4c3F)c12 (stereo not shown) [Compound 187, 3-{4-chloro-5-[4-({1-[(1-{[(4-{3,8-diazabicyclo[3.2.1]octan-3-yl}-7-(8-ethynyl-7-fluoro-3-hydroxynaphthalen-1-yl)-8-fluoropyrido[4,3-d]pyrimidin-2-yl)oxy]methyl}cyclopropyl)methyl]piperidin-4-yl}methyl)piperazin-1-yl]-1-oxo-2,3-dihydro-1H-isoindol-2-yl}piperidine-2,6-dione]	> 70	< 5.1
C#Cc1c(F)ccc2cc(O)cc(-c3ncc4c(N5CC6CCC(C5)N6)nc(OCC5(CN6CCN(CC7CCN(c8ccc9c(c8)n(C)c(=O)n9C8CCC(=O)NC8=O)CC7)CC6)CC5)nc4c3F)c12 (stereo not shown) [Compound 188, 3-{5-[4-({4-[(1-{[(4-{3,8-diazabicyclo[3.2.1]octan-3-yl}-7-(8-ethynyl-7-fluoro-3-hydroxynaphthalen-1-yl)-8-fluoropyrido[4,3-d]pyrimidin-2-yl)oxy]methyl}cyclopropyl)methyl]piperazin-1-yl}methyl)piperidin-1-yl]-3-methyl-2-oxo-2,3-dihydro-1H-1,3-benzodiazol-1-yl}piperidine-2,6-dione]	> 70	< 5.1
